Test [1] concerns the target T1, Dopamine, D4.4 (Human Recombinant) (Homo sapiens, UniProt P21917).
T1 construct: expressed in transfected cells; host or cells: CHO cells (membranes)
T1 sequence (P21917 1-419): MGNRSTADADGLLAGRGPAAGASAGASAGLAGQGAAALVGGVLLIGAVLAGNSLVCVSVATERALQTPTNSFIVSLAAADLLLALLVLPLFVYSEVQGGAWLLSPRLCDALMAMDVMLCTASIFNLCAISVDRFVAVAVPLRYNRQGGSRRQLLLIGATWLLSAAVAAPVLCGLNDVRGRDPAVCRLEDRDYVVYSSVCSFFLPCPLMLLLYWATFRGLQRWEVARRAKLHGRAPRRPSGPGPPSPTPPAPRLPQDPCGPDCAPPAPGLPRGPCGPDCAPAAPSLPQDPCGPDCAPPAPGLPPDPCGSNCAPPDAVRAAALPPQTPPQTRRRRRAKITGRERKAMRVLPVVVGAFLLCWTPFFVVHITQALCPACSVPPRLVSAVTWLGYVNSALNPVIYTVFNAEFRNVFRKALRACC
As to the kind of experiment: dopamine D4.4 receptor binding assay, [3H]spiperone, human recombinant (CHO cells). Particulars: 1 h, N = 2, read-out: % Specific Binding; for activity at 10 µM: concentration 1.0E-5, average; for activity at 1 µM: concentration 1.0E-6, average; for activity at 0.1 µM: concentration 1.0E-7, average; for activity at 0.01 µM: concentration 1.0E-8, average; for activity at 0.001 µM: concentration 1.0E-9, average; for activity at 3 µM: concentration 3.0E-6, average; for activity at 0.3 µM: concentration 3.0E-7, average; for activity at 0.03 µM: concentration 3.0E-8, average; for activity at 0.003 µM: concentration 3.0E-9, average; for activity at 0.0003 µM: concentration 3.0E-10, average. The protocol:
[The source words this procedure for another target and reports this target under the same test.] (§1) Following incubation, the membranes were rapidly filtered under vacuum through GF/B glass fiber filters (Packard). The filters were then washed several times with an ice-cold buffer using a Packard cell harvester.
(§2) Bound radioactivity was measured with a scintillation counter (Topcount, Packard) using a liquid scintillation cocktail (Microscint 0, Packard).
(§3) The compounds were tested in each assay at ten concentrations in duplicate to obtain competition curves.
(§4) In each experiment, the respective reference compound was simultaneously tested at eight concentrations in duplicate to obtain competition curves in order to validate this experiment.
(§5) The specific radioligand binding to the receptors is defined as the difference between total binding and nonspecific binding determined in the presence of an excess of unlabelled ligand (see section 2.1).
(§6) Results are expressed as a percent of control specific binding obtained in the presence of the test compounds.
(§7) These parameters were obtained by Hill equation curve fitting. The inhibition constants (Ki) were calculated from the Cheng Prusoff equation (Ki =IC50 /(1+L/KD), where L=concentration of radioligand in the assay, and KD=affinity of radioligand for the receptor).
(§8) Reactions were carried out in 50 mM TRIS-HCl (pH 7.4) containing 120 mM NaCl, 5 mM KCl, 5 mM MgCl2, 1mM EDTA for 60 minutes at 25 ° C. The reaction was terminated by rapid vacuum filtration onto glass fiber filters. Radioactivity trapped onto the filters was determined and compared to control values in order to ascertain any interactions of test compound(s) with the cloned dopamine D2 short binding site.

In test [2] the target is T2, Dopamine, D2s (Human Recombinant) (Homo sapiens, UniProt P14416).
T2 construct: expressed in transfected cells; host or cells: A9L cells (membranes)
As to the kind of experiment: dopamine D2 receptor binding assay, [3H]spiperone, human recombinant (A9L cells). To be noted: 1 h, N = 2, read-out: % Specific Binding; for activity at 10 µM: concentration 1.0E-5, average; for activity at 1 µM: concentration 1.0E-6, average; for activity at 0.1 µM: concentration 1.0E-7, average; for activity at 0.01 µM: concentration 1.0E-8, average; for activity at 0.001 µM: concentration 1.0E-9, average; for activity at 3 µM: concentration 3.0E-6, average; for activity at 0.3 µM: concentration 3.0E-7, average; for activity at 0.03 µM: concentration 3.0E-8, average; for activity at 0.003 µM: concentration 3.0E-9, average; for activity at 0.0003 µM: concentration 3.0E-10, average. On the procedure:
as §1, §2, §3, §4, §5, §6, §7, §8

Four compounds from patent US6107313A, “Dopamine receptor antagonists” (CombiChem, Inc., priority 1998, dated 2000) can be followed below.

SMILES strings stand for the structures.

T2 sequence (P14416 1-414 isoform P14416-2): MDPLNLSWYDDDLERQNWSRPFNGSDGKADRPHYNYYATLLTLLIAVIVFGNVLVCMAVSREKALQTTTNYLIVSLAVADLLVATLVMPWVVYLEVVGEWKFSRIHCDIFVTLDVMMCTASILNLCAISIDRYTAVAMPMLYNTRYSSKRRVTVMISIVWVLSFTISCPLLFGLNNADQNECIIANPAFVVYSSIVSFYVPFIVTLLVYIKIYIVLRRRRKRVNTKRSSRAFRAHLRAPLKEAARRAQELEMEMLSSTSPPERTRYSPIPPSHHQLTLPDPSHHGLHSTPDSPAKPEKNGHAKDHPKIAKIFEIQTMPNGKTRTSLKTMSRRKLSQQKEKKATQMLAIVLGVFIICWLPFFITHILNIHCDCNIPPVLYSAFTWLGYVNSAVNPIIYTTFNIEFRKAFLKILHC

Turning to `Cc1ccc(-c2noc(C3CCN(Cc4ccc(Cl)c(Cl)c4)CC3)n2)cc1` [Compound 5a, 4-(3-p-tolyl-1,2,4-oxadiazol-5-yl)-N-(3,4-dichlorobenzyl) piperidine], in test [1], the activity at 10 µM came to 3.57%, the activity at 1 µM came out at 46.6%, the activity at 0.1 µM was determined as 76.8% and the activity at 0.01 µM worked out at 81%. In test [1], the activity at 0.001 µM is 80.2%, the activity at 3 µM came out at 16.4%, the activity at 0.3 µM came to 80.4% and the activity at 0.03 µM is 76.3%. Also, in test [1], the activity at 0.003 µM worked out at 84.4% and the activity at 0.0003 µM came to 90.9%. Further, in test [2], the activity at 10 µM is 116%, the activity at 1 µM was determined as 102%, the activity at 0.1 µM was found to be 84.7% and the activity at 0.01 µM was 89.7%. In test [2], the activity at 0.001 µM was determined as 93.4%, the activity at 3 µM stood at 99.4%, the activity at 0.3 µM turned out to be 101% and the activity at 0.03 µM is 107%. Also, in test [2], the activity at 0.003 µM was 90.8% and the activity at 0.0003 µM came to 89.9%.

As to `Clc1ccc(CN2CCC(c3nc(-c4cccs4)no3)CC2)cc1` [Compound 5b, 4-[3-(2-thienyl)-1,2,4-oxadiazol-5-yl]-N-(4-chlorobenzyl) piperidine], in test [1], the activity at 10 µM is -3.8%, the activity at 1 µM was 0.44%, the activity at 0.1 µM amounted to 22.8% and the activity at 0.01 µM worked out at 53.6%. Further, in test [1], the activity at 0.001 µM worked out at 76%, the activity at 3 µM is -0.19%, the activity at 0.3 µM stood at 4.28% and the activity at 0.03 µM was 29.7%. Also, in test [1], the activity at 0.003 µM was 73.1% and the activity at 0.0003 µM is 82.3%. In test [2], the activity at 10 µM was 24.6%, the activity at 1 µM was determined as 91.3%, the activity at 0.1 µM worked out at 112% and the activity at 0.01 µM came out at 103%. In addition, in test [2], the activity at 0.001 µM worked out at 104%, the activity at 3 µM was 61.9%, the activity at 0.3 µM is 116% and the activity at 0.03 µM was determined as 104%. Besides, in test [2], the activity at 0.003 µM amounted to 97.3% and the activity at 0.0003 µM is 116%.

For the compound `Clc1cccc(CN2CCC(c3nc(-c4cccs4)no3)CC2)c1` [Compound 5c, 4-[3-(2-thienyl)-1,2,4-oxadiazol-5-yl]-N-(3-chlorobenzyl) piperidine], in test [1], the activity at 10 µM is -7.32%, the activity at 1 µM worked out at 1.74%, the activity at 0.1 µM turned out to be 29.2% and the activity at 0.01 µM stood at 81.9%. For the same compound, in test [1], the activity at 0.001 µM was 107%, the activity at 3 µM amounted to 4.6%, the activity at 0.3 µM was 4.79% and the activity at 0.03 µM worked out at 60%. In test [1], the activity at 0.003 µM was found to be 95.2% and the activity at 0.0003 µM is 109%. Moreover, in test [2], the activity at 10 µM turned out to be 33%, the activity at 1 µM was 101%, the activity at 0.1 µM amounted to 87.7% and the activity at 0.01 µM came to 88.3%. Besides, in test [2], the activity at 0.001 µM is 94.8%, the activity at 3 µM was 102%, the activity at 0.3 µM stood at 94.6% and the activity at 0.03 µM amounted to 84.9%. Besides, in test [2], the activity at 0.003 µM was found to be 108% and the activity at 0.0003 µM is 98.5%.

In the case of `COc1ccc(CN2CCC(c3nc(-c4ccccc4C)no3)CC2)cc1` [Compound 5d, 4-(3-o-tolyl-1,2,4-oxadiazol-5-yl)-N-(4-methoxybenzyl) piperidine], in test [1], the activity at 10 µM came out at 2.15%, the activity at 1 µM was determined as 6.58%, the activity at 0.1 µM stood at 47.5% and the activity at 0.01 µM turned out to be 92.1%. In test [1], the activity at 0.001 µM was 102%, the activity at 3 µM came out at 12.2%, the activity at 0.3 µM is 22.9% and the activity at 0.03 µM turned out to be 77.1%. In test [1], the activity at 0.003 µM was found to be 96.4% and the activity at 0.0003 µM worked out at 101%. Besides, in test [2], the activity at 10 µM came to 39.5%, the activity at 1 µM came to 106%, the activity at 0.1 µM was found to be 105% and the activity at 0.01 µM came to 100%. Besides, in test [2], the activity at 0.001 µM amounted to 104%, the activity at 3 µM was 113%, the activity at 0.3 µM was 117% and the activity at 0.03 µM came to 99.8%. Moreover, in test [2], the activity at 0.003 µM is 105% and the activity at 0.0003 µM was 85.2%.
